Holding throughout (assay): NCI anticancer screen, dose series, 48 h
For assay [1], the system named is M14 melanoma.
The subject of assay [2] is SK-OV-3 ovarian.
The subject of assay [3] is U251 CNS.
Assay [4] has as its system SW-620 colon.
The test system of assay [5] is DU-145 prostate.
Assay [6] concerns A498 renal.
Assay [7] relates to LOX IMVI melanoma.
Assay [8] has as its system CCRF-CEM leukemia.
Assay [9] relates to NCI-H23 lung.
The test system of assay [10] is MCF7 breast.
Assay [11] relates to K-562 leukemia.
Assay [12] has as its system NCI/ADR-RES ovarian.
Assay [13] relates to UACC-257 melanoma.
Assay [14] relates to UACC-62 melanoma.
Assay [15] has as its system HCT-15 colon.
Assay [16] deals with SK-MEL-2 melanoma.

SMILES strings stand for the structures.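 Exposure lasted 48 hours, with cells grown in 96-well plates and compounds tested at five concentrations. TGI denotes the concentration required for complete inhibition of growth.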 Where a SMILES comes first, the peptide text is derived from it. The star is where a group is joined. Fmoc = O=C(OCC1c2ccccc2-c2ccccc21)*; Boc = CC(C)(C)OC(=O)*

TGI data for nine molecules are collected here from PubChem BioAssay (NCI).

On to `C1COCCOP2(N3CC3)=NP(N3CC3)(=NP(N3CC3)(N3CC3)=N2)OCCOCCO1` (stereo not given), for which the TGI in [1], in assay [2], in assay [3], in assay [4], in assay [5] and in [6] was above 100 µM each time. For the same molecule, the TGI in assay [7], in assay [8], in assay [9], in assay [10], in [11] and in assay [12] was above 100 µM in each case. In addition, the TGI in assay [13], in assay [14] and in [15] was above 100 µM in each case.
As to `CC(C)[C@H]1NC(=O)[C@H]2N=C(O[C@@H]2C)[C@@H]2CCCN2C(=O)[C@H](Cc2ccccc2)NC(=O)[C@@H]2COC(=N2)[C@@H](Cc2ccccc2)NC(=O)[C@@H]2COC1=N2`, the TGI in [1], in assay [2], in assay [3], in assay [4], in assay [5] and in [16] was above 100 µM throughout. The TGI in assay [7], in [8], in [9], in [10], in [11] and in assay [12] was above 100 µM each time. The TGI in assay [13], in [14] and in assay [15] was above 100 µM each time.
`COc1cc(C2SC(N)=Nc3c2c(C)nn3C(=O)c2ccc(Cl)cc2)ccc1O` (stereo not given): the TGI in assay [1], in assay [2], in [3], in assay [4], in [5] and in [16] was above 10 µM each time. Further, the TGI in assay [7], in [8], in assay [9], in [10], in assay [11] and in assay [12] was above 10 µM each time. Besides, the TGI in assay [13], in assay [14] and in assay [15] was above 10 µM throughout.
Consider `C[Si](C)(C)C#CCOC=C1CC1`, for which the TGI in assay [1], in assay [2], in assay [3], in assay [4], in assay [5] and in [16] was above 100 µM in each case. In addition, the TGI in assay [7], in assay [8], in assay [9], in [10], in [11] and in assay [12] was above 100 µM throughout. In addition, the TGI in assay [13], in assay [14] and in assay [15] was above 100 µM in each case.
Take `CC(C)(C)OC(=O)NCCCCC(NC(=O)C(Cc1c[nH]c2ccccc12)NC(=O)OCC1c2ccccc2-c2ccccc21)C(=O)O` (stereo not given) (Fmoc-Trp-Lys(Boc)-OH; configuration not given here): the TGI is above 100 µM in assay [1]; 35.6 µM in assay [2]; 31.1 µM in assay [3]; above 100 µM in assay [4]; above 100 µM in assay [5]; 54.9 µM in [16]. In addition, the TGI in assay [7] is 46.2 µM; in assay [8], 61 µM; in assay [9], above 100 µM; in [10] it was above 100 µM; in assay [11], 38.5 µM; in assay [12], above 100 µM. Further, the values for the TGI in assay [13], in [14] and in [15] were above 100 µM, 42.4 µM and above 100 µM, respectively.
With `CCOC(=O)C(C(=O)OCC)C(NC(=O)Nc1cc(C(F)(F)F)ccc1OC)(C(F)(F)F)C(F)(F)F`, the TGI in assay [1] was 45 µM; in [2], above 100 µM; in assay [3], 59.1 µM; in [4] it was above 100 µM; in [5], above 100 µM; in assay [6], 31.9 µM. Also, the TGI was above 100 µM in assay [7]; 70.9 µM in assay [8]; 85.6 µM in assay [9]; above 100 µM in assay [10]; 74.5 µM in [11]; 75.9 µM in assay [12]. In addition, the TGI in assay [13] is 94.1 µM; in assay [14], 88.8 µM; in assay [15], above 100 µM.
Turning to `COC(=O)c1c(OC(C)=O)ccc2c1c1cc3ccccc3c(OC(C)=O)c1n2C`, the TGI in [1] is above 100 µM; in assay [2], 55.2 µM; in [3], above 100 µM; in [5] it was 44.6 µM; in [16], above 100 µM; in assay [6], 46 µM. Further, the TGI in assay [8], in assay [9], in assay [10], in assay [11], in assay [12] and in assay [14] was above 100 µM each time. The molecule also had a TGI in assay [15] above 100 µM.
Take `CC(C)[Si](OC1=CCC[C@H]2NC(=O)[C@@H](Cc3ccc([N+](=O)[O-])cc3)[C@@]12C)(C(C)C)C(C)C`: the TGI amounted to 26.2 µM in assay [1]; 21.7 µM in assay [2]; 21.3 µM in assay [5]; 28 µM in assay [16]; 15.8 µM in assay [7]; 8.19 µM in [8]. Besides, the TGI in assay [9] turned out to be 18.6 µM; in [10], 10.7 µM; in [11] it was 13.7 µM; in assay [12] it was 28 µM; in [13], 17.8 µM; in assay [14] it was 27.7 µM. The molecule further showed a TGI in assay [15] of 15.6 µM.
With `O=c1c2cc([N+](=O)[O-])cnc2sn1-c1ccc(Br)cc1`, the TGI in [1] is above 100 µM; in assay [2] it was 99 µM; in assay [3] it was above 100 µM; in assay [4] it was above 100 µM; in [5], above 100 µM; in assay [16], 85.5 µM. Further, the TGI in assay [7] was 52.5 µM; in assay [8], 66.6 µM; in assay [9], above 100 µM; in assay [10], above 100 µM; in assay [12], above 100 µM; in assay [13], above 100 µM. The TGI in assay [14] and in assay [15] was above 100 µM each time.
